Legend:
[1] = tested on: cultered cancer cell lines; settings: cited from earlier work
[2] = tested on: human malignant cell lines; settings: rapidly proliferating normal cells not affected; cited from earlier work
[3] = tested on: primary cultures of tumor cells from patients and a human cell line panel; settings: cited from earlier work
[4] = tested on: androgen independent human prostate cancer cell lines; settings: in-vitro; cited from earlier work
[5] = in 50 ml of 9.6% solution of hydroxypropyl-β-cyclodextrin, 70 to 80° C.
Method: 200 mg of oleandrin was weighed and placed in a sterile test tube. The oleandrin was dissolved in 3 to 5 mL of purified absolute ethanol. […] The ethanolic solution of oleandrin was slowly added to the beaker with stirring. […] The solution was sterile-filtered through a 0.22 μm filter. The solution was frozen below −40° C. and lyophilized.
500 mg of digitoxin was weighed and placed in a sterile test tube. […] The ethanolic solution of digitoxin was slowly added to the beaker with stirring. […] The solution was sterile-filtered through a 0.22 μm filter. The solution was frozen below −40° C. and lyophilized.
200 mg of proscillaridin-A was weighed and placed in a sterile test tube and was dissolved in 5 to 10 mL of purified absolute ethanol. […] The ethanolic solution of proscillaridin-A was slowly added to the beaker with stirring. […] The solution was sterile filtered through a 0.22 μm filter. The solution was frozen below −40° C. and lyophilized.

[6] = tested on: FGF-2 release from PC3 cells; settings: oleandrin 0.1 ng/mL; cited from earlier work
[7] = tested on: FGF-2 release from DU145 cells; settings: oleandrin 0.1 ng/mL; cited from earlier work
[8] = tested on: human cancer cells; settings: cited from earlier work
[9] = tested on: murine cancer cells; settings: cited from earlier work
[10] = tested on: NF-κB; settings: cited from earlier work
[11] = tested on: AP-1; settings: cited from earlier work
[12] = tested on: c-Jun NH2-terminal kinase; settings: cited from earlier work
[13] = cited from earlier work

CO[C@@H]1C[C@H](O[C@H]2CC[C@@]3(C)[C@H](CC[C@@]45O[C@@]46CC[C@H](C4=CC(=O)OC4)[C@@]6(C)CC[C@H]35)C2)O[C@H](C)[C@@H]1O [adynerin]
anti-cancer activity [1]: significant anti-cancer activity

C[C@H]1O[C@@H](O[C@H]2[C@@H](O)C[C@H](O[C@H]3[C@@H](O)C[C@H](O[C@H]4CC[C@@]5(C)[C@H](CC[C@@H]6[C@@H]5CC[C@]5(C)[C@@H](C7=CC(=O)OC7)CC[C@]65O)C4)O[C@@H]3C)O[C@@H]2C)C[C@H](O)[C@@H]1O [digitoxin]
growth and apoptosis at non-toxic concentrations [2]: inhibit growth and induce apoptosis

C[C@H]1O[C@@H](O[C@H]2[C@@H](O)C[C@H](O[C@H]3[C@@H](O)C[C@H](O[C@H]4CC[C@@]5(C)[C@H](CC[C@@H]6[C@@H]5C[C@@H](O)[C@]5(C)[C@@H](C7=CC(=O)OC7)CC[C@]65O)C4)O[C@@H]3C)O[C@@H]2C)C[C@H](O)[C@@H]1O [digoxin]
selective toxicity against solid or hematological tumor cells from patients [3]: selective toxicity against solid tumor cells
growth and apoptosis at non-toxic concentrations [2]: inhibit growth and induce apoptosis
induction of apoptosis [4]: induce apoptosis

CO[C@H]1C[C@H](O[C@H]2CC[C@@]3(C)[C@H](CC[C@@H]4[C@@H]3CC[C@]3(C)[C@@H](C5=CC(=O)OC5)[C@@H](OC(C)=O)C[C@]43O)C2)O[C@@H](C)[C@@H]1O [oleandrin, 16β-acetoxy-3β-[(2,6 dideoxy-3-0-methyl-α2-L-arabino-hexopyranosyl)oxy]-14-hydroxy-5β, 14β-card-20(22)-enolide]
amount effectively solubilized [5]: 200 mg
inhibition of FGF-2 release [6]: 45.7%
inhibition of FGF-2 release [7]: 49.9%
anti-cancer activity [1]: significant anti-cancer activity
ability to kill human cancer cells [8]: able to kill
toxicity to murine cancer cells [9]: not toxic
induction of apoptosis [4]: induce apoptosis
NF-κB activation induced by phorbol esters and bacterial lipopolysaccharide [10]: blocked
NF-κB-dependent reporter gene transcription activated by TNF [10]: suppressed
TNF induced activation of NF-κB ([10]; concentration and time dependent): blocked
AP-1 activation induced by TNF and other stimuli [11]: blocked
TNF induced activation of c-Jun NH2-terminal kinase [12]: inhibited
solubility in organic solvents ([13]; ethanol and chloroform): soluble
stability with respect to heat ([13]; heat): heat stable
stability with respect to light ([13]; light): unstable
solubility in water ([13]; water): almost insoluble

C[C@@H]1O[C@@H](O[C@H]2C[C@@H](O)[C@]3(CO)[C@H]4[C@H](O)C[C@]5(C)[C@@H](C6=CC(=O)OC6)CC[C@]5(O)[C@@H]4CC[C@]3(O)C2)[C@H](O)[C@H](O)[C@H]1O [ouabain]
induction of apoptosis [4]: induce apoptosis

C[C@@H]1O[C@@H](O[C@@H]2C=C3CC[C@@H]4[C@H](CC[C@]5(C)[C@@H](c6ccc(=O)oc6)CC[C@]45O)[C@@]3(C)CC2)[C@H](O)[C@H](O)[C@H]1O [proscillaridin-A, Proscillaridin A, reference compound]
amount effectively solubilized [5]: 200 mg
selective toxicity against solid or hematological tumor cells from patients [3]: no selective toxicity

C[C@H]1[C@H](C)CC[C@]2(C(=O)O)CC[C@]3(C)C(=CC[C@@H]4[C@@]5(C)CC[C@H](O)C(C)(C)[C@@H]5CC[C@]43C)[C@H]12 [ursolic acid]
anti-cancer activity [1]: significant anti-cancer activity

Source: US20060205679A1, “Topical and oral formulations of cardiac glycosides for treating skin diseases” (Azaya Therapeutics, Inc., priority 2004, published 2006)
